Source: US20260108546A1 (ELI LILLY AND COMPANY, priority 2024, published 2026)

Molecular target: T1, hGIP-R (Homo sapiens, UniProt P48546)
T1 construct: expressed in transfected cells; host or cells: HEK-293 clonal cell lines
T1 sequence (P48546 22-466): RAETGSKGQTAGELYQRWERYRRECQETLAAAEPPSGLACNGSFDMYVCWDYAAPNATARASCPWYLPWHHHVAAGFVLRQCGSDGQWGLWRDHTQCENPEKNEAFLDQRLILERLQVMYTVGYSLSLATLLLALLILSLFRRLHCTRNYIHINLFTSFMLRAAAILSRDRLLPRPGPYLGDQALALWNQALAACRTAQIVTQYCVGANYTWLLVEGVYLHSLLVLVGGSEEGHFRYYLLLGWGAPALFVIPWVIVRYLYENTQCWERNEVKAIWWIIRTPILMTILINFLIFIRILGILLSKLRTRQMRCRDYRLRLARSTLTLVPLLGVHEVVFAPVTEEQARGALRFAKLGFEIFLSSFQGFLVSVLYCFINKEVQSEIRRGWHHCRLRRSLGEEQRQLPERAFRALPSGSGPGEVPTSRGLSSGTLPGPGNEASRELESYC
Assay: Functional hGIP-R Assay (cAMP formation, HTRF)
Assay type: cell-based
Details: for Emax: cAMP efficacy, percent of maximal response to GIP(1-42)OH, 37° C., 0.1% bovine casein, arithmetic mean ± SEM; for EC50: cAMP potency, HEK-293 cells expressing hGIP-R, incubated at 37° C. in the presence of 0.1% bovine casein, geometric mean, read-out: Human GIP-R EC50, nM (SEM, n)
Summary of the method: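 Relative EC50 and Emax came from four-parameter logistic fits of cAMP as a percent of the human GIP (1-42) OH maximal response. The cAMP was measured by competitive HTRF after 30 min, 37 °C compound exposure of hGIP-R HEK-293 clones in IBMX (250 μM)-containing medium.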

Row | Emax [%] | EC50 [nM] | SMILES
1 | 98.4 ± 3.96 | 53 | Cn1cc(C[C@@H](NC(=O)[C@H]2C[C@@H]2c2ccc(-c3cnc4nn(C)cc4c3)cc2)C(=O)NC(C)(C)Cn2nc(C(F)(F)F)cc2-c2ccn(C)c(=O)c2)cn1 [Example 52, (1S,2S)-N—((R)-1-((2-Methyl-1-(5-(1-methyl-2-oxo-1,2-dihydropyridin-4-yl)-3-(trifluoromethyl)-1H-pyrazol-1-yl)propan-2-yl)amino)-3-(1-methyl-1H-pyrazol-4-yl)-1-oxopropan-2-yl)-2-(4-(2-methyl-2H-pyrazolo[3,4-b]pyridin-5-yl)phenyl)cyclopropane-1-carboxamide]
2 | 112 ± 14.8 | 61 | Cn1cc(C[C@@H](NC(=O)[C@H]2C[C@@H]2c2ccc(-c3cnc4nn(C)cc4c3)cc2)C(=O)NC(C)(C)Cn2nc(C(F)(F)F)cc2-c2cc3c(=O)[nH]cnn3c2)cn1 [Example 57, (1S,2S)-N-((R)-1-((2-Methyl-1-(5-(4-oxo-3,4-dihydropyrrolo[2,1-f][1,2,4]triazin-6-yl)-3-(trifluoromethyl)-1H-pyrazol-1-yl)propan-2-yl)amino)-3-(1-methyl-1H-pyrazol-4-yl)-1-oxopropan-2-yl)-2-(4-(2-methyl-2H-pyrazolo[3,4-b]pyridin-5-yl)phenyl) cyclopropane-1-carboxamide]
3 | 110 ± 1.71 | 23.8 | Cn1cc(C[C@@H](NC(=O)[C@H]2C[C@@H]2c2ccc(-c3cnc4nn(C)cc4c3)cc2)C(=O)NC(C)(C)Cn2nc(C(F)(F)F)cc2-c2cccn(C)c2=O)cn1 [Example 58, (1S,2S)-N-((R)-1-((2-Methyl-1-(5-(1-methyl-2-oxo-1,2-dihydropyridin-3-yl)-3-(trifluoromethyl)-1H-pyrazol-1-yl)propan-2-yl)amino)-3-(1-methyl-1H-pyrazol-4-yl)-1-oxopropan-2-yl)-2-(4-(2-methyl-2H-pyrazolo[3,4-b]pyridin-5-yl)phenyl) cyclopropane-1-carboxamide]
4 | 122 ± 2.6 | 49.1 | Cn1cc(C[C@@H](NC(=O)[C@H]2C[C@@H]2c2ccc(-c3cnc4nn(C)cc4c3)cc2)C(=O)NC(C)(C)Cn2nc(C(F)(F)F)cc2-c2ccc(=O)[nH]c2)cn1 [Example 59, (1S,2S)-N-((R)-1-((2-Methyl-1-(5-(6-oxo-1,6-dihydropyridin-3-yl)-3-(trifluoromethyl)-1H-pyrazol-1-yl)propan-2-yl)amino)-3-(1-methyl-1H-pyrazol-4-yl)-1-oxopropan-2-yl)-2-(4-(2-methyl-2H-pyrazolo[3,4-b]pyridin-5-yl)phenyl) cyclopropane-1-carboxamide]
5 | 67.8 ± 10.2 | 17.5 | Cn1cc2cc(-c3ccc([C@H]4C[C@@H]4C(=O)N[C@H](Cc4cnc5ncccn45)C(=O)NC(C)(C)Cn4nc(C(F)(F)F)cc4-c4ccc(=O)n(C)c4)cc3)cnc2n1 [Example 62, (1S,2S)-N-((R)-3-(imidazo[1,2-a]pyrimidin-3-yl)-1-((2-methyl-1-(5-(1-methyl-6-oxo-1,6-dihydropyridin-3-yl)-3-(trifluoromethyl)-1H-pyrazol-1-yl)propan-2-yl)amino)-1-oxopropan-2-yl)-2-(4-(2-methyl-2H-pyrazolo[3,4-b]pyridin-5-yl)phenyl) cyclopropane-1-carboxamide]
6 | 128 | 61.9 | Cn1cc(C[C@@H](NC(=O)[C@H]2C[C@@H]2c2ccc(-c3cnc4nn(C)cc4c3)cc2)C(=O)NC(C)(C)Cn2nc(C(F)(F)F)cc2-c2cccc(=O)[nH]2)cn1 [Example 64, (1S,2S)-N—((R)-1-((2-Methyl-1-(5-(6-oxo-1,6-dihydropyridin-2-yl)-3-(trifluoromethyl)-1H-pyrazol-1-yl)propan-2-yl)amino)-3-(1-methyl-1H-pyrazol-4-yl)-1-oxopropan-2-yl)-2-(4-(2-methyl-2H-pyrazolo[3,4-b]pyridin-5-yl)phenyl)cyclopropane-1-carboxamide]
7 | 113 ± 4.23 | 38.1 | COCn1ncc(-c2cc(C(F)(F)F)nn2CC(C)(C)NC(=O)[C@@H](Cc2cnn(C)c2)NC(=O)[C@H]2C[C@@H]2c2ccc(-c3cnc4nn(C)cc4c3)cc2)n1 [Example 65, (1S,2S)-N—((R)-1-((1-(5-(2-(Methoxymethyl)-2H-1,2,3-triazol-4-yl)-3-(trifluoromethyl)-1H-pyrazol-1-yl)-2-methylpropan-2-yl)amino)-3-(1-methyl-1H-pyrazol-4-yl)-1-oxopropan-2-yl)-2-(4-(2-methyl-2H-pyrazolo[3,4-b]pyridin-5-yl)phenyl)cyclopropane-1-carboxamide]

Continued, molecule first:

Row | SMILES | Emax [%] | EC50 [nM]
8 | CC(C)(Cc1ccc(F)cc1)NC(=O)[C@@H](Cc1cnc2ncccn12)NC(=O)[C@H]1C[C@@H]1c1ccc(NC(=O)C2CCC(F)(F)CC2)cc1 [Example 49, 4,4-Difluoro-N-(4-((1S,2S)-2-(((R)-1-((1-(4-fluorophenyl)-2-methylpropan-2-yl)amino)-3-(imidazo[1,2-a]pyrimidin-3-yl)-1-oxopropan-2-yl)carbamoyl)cyclopropyl)phenyl)cyclohexane-1-carboxamide] | 72.6 ± 3.47 | 12.6
9 | Cn1cc(C[C@@H](NC(=O)[C@H]2C[C@@H]2c2ccc(-c3cnc4nn(C)cc4c3)cc2)C(=O)NC(C)(C)Cn2nc(C(F)(F)F)cc2C2CCC2)cn1 [Example 51, (1S,2S)-N—((R)-1-((1-(5-Cyclobutyl-3-(trifluoromethyl)-1H-pyrazol-1-yl)-2-methylpropan-2-yl)amino)-3-(1-methyl-1H-pyrazol-4-yl)-1-oxopropan-2-yl)-2-(4-(2-methyl-2H-pyrazolo[3,4-b]pyridin-5-yl)phenyl)cyclopropane-1-carboxamide] | 120 ± 6.49 | 62.7
10 | Cn1cc(C[C@@H](NC(=O)[C@H]2C[C@@H]2c2ccc(-c3cnc4nn(C)cc4c3)cc2)C(=O)NC(C)(C)Cn2nc(C(F)(F)F)cc2-c2cnn(C3COC3)c2)cn1 [Example 54, (1S,2S)-N-((R)-1-((2-Methyl-1-(1′-(oxetan-3-yl)-5-(trifluoromethyl)-1′H,2H-[3,4′-bipyrazol]-2-yl)propan-2-yl)amino)-3-(1-methyl-1H-pyrazol-4-yl)-1-oxopropan-2-yl)-2-(4-(2-methyl-2H-pyrazolo[3,4-b]pyridin-5-yl)phenyl) cyclopropane-1-carboxamide] | 137 ± 14.1 | 76.8
11 | Cn1cc(C[C@@H](NC(=O)[C@H]2C[C@@H]2c2ccc(-c3cnc4nn(C)cc4c3)cc2)C(=O)NC(C)(C)Cn2nc(C(F)(F)F)cc2-c2cnn(CC3COC3)c2)cn1 [Example 55, (1S,2S)-N-((R)-1-((2-Methyl-1-(1′-(oxetan-3-ylmethyl)-5-(trifluoromethyl)-1′H,2H-[3,4′-bipyrazol]-2-yl)propan-2-yl)amino)-3-(1-methyl-1H-pyrazol-4-yl)-1-oxopropan-2-yl)-2-(4-(2-methyl-2H-pyrazolo[3,4-b]pyridin-5-yl)phenyl) cyclopropane-1-carboxamide] | 109 ± 0.179 | 49.1
12 | Cn1cc(C[C@@H](NC(=O)[C@H]2C[C@@H]2c2ccc(-c3cnc4nn(C)cc4c3)cc2)C(=O)NC(C)(C)Cn2nc(C(F)(F)F)cc2-c2cnn3c2CN(C(=O)OC(C)(C)C)CC3)cn1 [Example 56, tert-Butyl 3-(1-(2-methyl-2-((R)-3-(1-methyl-1H-pyrazol-4-yl)-2-((1S,2S)-2-(4-(2-methyl-2H-pyrazolo[3,4-b]pyridin-5-yl)phenyl)cyclopropane-1-carboxamido)propanamido)propyl)-3-(trifluoromethyl)-1H-pyrazol-5-yl)-6,7-dihydropyrazolo[1,5-a]pyrazine-5(4H)-carboxylate] | 113 ± 10.7 | 84.6
13 | CN(C(=O)[C@H]1C[C@@H]1c1ccc(-c2cnc3nn(C)cc3c2)cc1F)[C@H](Cc1cnn(C)c1)C(=O)NC(C)(C)Cn1nc(C(F)(F)F)cc1-c1ccc(=O)n(C)c1 [Example 61, (1S,2S)-2-(2-Fluoro-4-(2-methyl-2H-pyrazolo [3,4-b]pyridin-5-yl)phenyl)-N-methyl-N-((R)-1-((2-methyl-1-(5-(1-methyl-6-oxo-1,6-dihydropyridin-3-yl)-3-(trifluoromethyl)-1H-pyrazol-1-yl)propan-2-yl)amino)-3-(1-methyl-1H-pyrazol-4-yl)-1-oxopropan-2-yl) cyclopropane-1-carboxamide] | 88.5 ± 2.66 | 56.8
14 | Cn1cc2cc(-c3ccc([C@H]4C[C@@]45CCN([C@H](Cc4cnn(C(F)F)c4)C(=O)NC(C)(C)Cn4nc(C(F)(F)F)cc4-c4ccc(=O)n(C)c4)C5=O)cc3)cnc2n1 [Example 63, (R)-3-(1-(Difluoromethyl)-1H-pyrazol-4-yl)-N-(2-methyl-1-(5-(1-methyl-6-oxo-1,6-dihydropyridin-3-yl)-3-(trifluoromethyl)-1H-pyrazol-1-yl)propan-2-yl)-2-((1R,3R)-1-(4-(2-methyl-2H-pyrazolo[3,4-b]pyridin-5-yl)phenyl)-4-oxo-5-azaspiro[2.4]heptan-5-yl)propanamide] | 62.1 ± 3.55 | 21.6
